The values that follow come from paper PMC5537589, “A peptide-based viral inactivator inhibits Zika virus infection in pregnant mice and fetuses” (Nature Communications, 2017).

Where no end group is shown, it is not given here.

One series relates to DENV-2. Conditions: 12 h.
The test system of another series is YFV 17D. The following applies: read-out: IC50, inhibition of YFV 17D infection; BHK21 cells.
Another series concerns ZIKV. Put plainly: Plaque reduction assay in BHK21 cells. It is filed as cell-based, Zika virus. The following applies: n=3. Here is the method: Supplementary Figure 2: Plaque reduction assay to determine ZIKV infection in BHK21 cells. (a) Plaque reduction assay for Z2. ZIKV was incubated with Z2 or Z2-scr in diﬀerent concentrations for 1.5 h. Then the mixture was added to BHK21 cells seeded in 6-well plates. After 1.5 h, the viral inoculum was removed and 2.5 ml DMEM with 2% FBS and 1% low melting-point agarose overlaid the cells. Four to five days later, the cells were fixed with 4% PFA and stained with 1% crystal violet overnight. (b) Plaque reduction curves. Plaques were counted and percentage of plaque reduction was […]

In the next series the test system is mouse red blood cells. The following applies: concentration as high as 100 μM; 2% mouse RBC, 1 h, 37 °C; A560.
The conditions of series [1]: SD rats, n=3, serum.
Another series deals with Huh7 cells. Conditions: concentration as high as 50 μM, 24 h, 37 °C, CCK8.
A further series has as its system BHK21 cells. The following applies: concentration as high as 50 μM, 24 h, 37 °C, CCK8.
The conditions of series [2]: 100 μg Z2-Cy5 i.v.; male ICR mice.
Another series has as its system Vero cells. The following applies: concentration as high as 50 μM, 24 h, 37 °C, CCK8.
The conditions of series [3]: rat, in vivo, iv, 10 mg/kg.
A further series in a line: in vivo. The following applies: SD, rat, iv, 10 mg kg-1.
A short description of series [4]: Safety of Z2 for pregnant ICR mice and fetuses. It is filed as in vivo.
Series [5] is described as follows: In vivo fluorescence imaging of distribution in pregnant ICR mice and fetuses.
The subject of the next series is ZIKV virions. Put plainly: Sucrose density gradient assay. Conditions: 100 μM peptide in 1% DMSO or 1% Triton X-100, 37 °C 2 h.
Series [6] relates to ZIKV-infected BHK21 cells. It is filed as binding, Zika virus. Conditions: peer review file. Here is the method:
Supplementary Figure 4: Binding of Z2-Cy5 to ZIKV-infected BHK21 cells. (a) Immunofluorescence staining assay.
Scale bar = 100 μm. (b) Flow cytometry assay. After the incubation of ZIKV or mock infected BHK21 cells with Z2-Cy5, the cells were washed five times and processed by a BD Accuri C6 Flow Cytometer.
BHK21 cells. As shown in Supplementary Figure 4, E protein (green, stained by anti-E mAb 4G2) and Z2-Cy5 (red) overlapped and colocated together (Supplementary Figure 4A). In the flow cytometry assay (Supplementary Figure 4B), Z2-Cy5 bound with 63.5% […]
ZIKV-infected BHK21 cells.
Supplementary Figure 4: Binding of Z2-Cy5 to ZIKV-infected BHK21 cells. (A) […]
Scale bar = 100 μm. (B) Flow cytometry assay. After the incubation of ZIKV- or mock- […]
The result was added to the revised manuscript: “Similar results were […]
obtained from ZIKV-infected BHK21cells (Supplementary Figure 4).”
The related methods were added in the revised manuscript:
“To test the binding of Z2 to ZIKV- infected BHK21 cells, BHK21 cells seeded in cover slips were ZIKV or mock infected, fixed with 4 % PFA, perforated by 0.2% Triton X-100 and blocked with 3% BSA. The cells were then incubated with anti-E mAb 4G2.
After 5 washes, the cells were incubated with Alexa Fluor 488-labeled donkey anti-mouse antibody and Z2-Cy5 at RT for 1 h. […]

Where [7] appears, read: 10-120 mg kg−1 i.v., before and 4 h, 1, 3, 5 days after third injection, P>0.05.

With “MAVLGDTAWDFGSVGGALNSLGKGIHQIFGAAF [Z2] [listing 1 of 2 here]”, the figures for the IC50 with DENV-2, with YFV 17D and in the series with ZIKV were about 4 µM, about 5 µM and 2.61 ± 0.46 µM, respectively.
Turning to “MAVLGDTAWDFGSVGGALNSLGKGIHQIFGAAF [Z2] [listing 2 of 2 here]”, in the series with mouse red blood cells, the “cytotoxic effect on red blood cells (hemoglobin release)” value is “no cytotoxic effect”. Moreover, the “Kel, elimination constant” value in series [1] (10 mg kg-1 i.v. tail vein, LC-MS/MS, noncompartmental) came to 0.250 h⁻¹. In addition, the Cmax (as a rule, the peak of the concentration-time curve) in series [1] (10 mg kg-1 i.v., concentration data dose-normalized) worked out at 754.6 ng/mL. The cytotoxic effect entry in the series with Huh7 cells, in the series with BHK21 cells and with Vero cells was “no cytotoxic effect” each time. Also, the “distribution to genital organs (testis, seminal vesicle, epididymis)” value in series [2] is “could distribute to the genital organs”. For the same substance, the AUC(0-inf) (usually the area under the concentration-time curve extrapolated to infinity) in series [3] came to 557 ng·h/mL. Moreover, the AUC(0-t) (as a rule, the area under the concentration-time curve up to a stated or last time point) in [3] amounted to 548 ng·h/mL. Further, in series [3], the Tmax (as a rule, the time from dosing to the highest level) turned out to be 0.25 h. In “in vivo”, the half-life (usually the time needed for the level to fall by half in the phase considered) was 2.77 h. Besides, the “average litter size of the offspring” value in series [4] (10 mg kg−1 i.v. daily for 3 days, n=5, PBS 10.4±1.5) stood at 10.2±1.6; in series [4] (20 mg kg−1 i.v. daily for 3 days, n=6) it was 10.5±2.0; in [4] (40 mg kg−1 i.v. daily for 3 days, n=5), 10.4±2.1; in series [4] (80 mg kg−1 i.v. daily for 3 days, n=5), 10.6±1.1; in [4] (120 mg kg−1 i.v. daily for 3 days, n=5), 10.8±2.6. Further, in series [4] (120 mg kg−1 versus 10 mg kg−1), the “safe dose relative to dose protecting against ZIKV in vivo” value is listed as 11 fold. Besides, the “serum ALT versus PBS group” value in series [4] (setting [7]) is reported as “no significant difference”. The “serum creatinine versus PBS group” value in series [4] (setting [7]) is listed as “no significant difference”. Also, in series [4] (10-120 mg kg−1 i.v., versus PBS), the “histopathology (H&E) of livers, kidneys, brains, spleens of mothers and pups” value is on record as “no pathological abnormality”. The “body weight changes of mothers and pups” value in series [4] (i.v. 10, 20, 40, 80, 120 mg kg−1 daily for 3 days versus PBS) was “almost the same among the six groups”. Further, in series [5] (injected intravenously or intraperitoneally, pregnant ICR mice), the “penetration of the placental barrier” value is recorded as “can penetrate through the placental barrier”.
For the substance Triton X-100, in the series on ZIKV virions (RT-qPCR), the “fraction with peak of viral genomic RNA” value is given as 1 fraction No. Also, the “fraction with peak of E protein” value in the series with ZIKV virions (western blot) is 7 fraction No.
As for “Z2-Cy5: Z2 labeled with Cy5 (MAVLGDTAWDFGSVGGALNSLGKGIHQIFGAAF; also: Cy5 label, site not given here)”, in series [6], the “ZIKV-infected BHK21 cells bound by Z2-Cy5 (flow cytometry)” value amounted to 63.5%. The “average radiant efficiency in uteruses versus PBS” value in series [5] (100 μg i.v., 1 h, P=0.0148) is given as “significantly higher”. Moreover, the “average radiant efficiency in liver versus PBS” value in series [5] (100 μg i.v., 1 h, P=0.0275) is recorded as “significantly higher”. Also, in series [5] (100 μg i.v., 1 h, P=0.0426), the “average radiant efficiency in bladder versus PBS” value was “significantly higher”. In addition, in series [5] (100 μg i.v., 1 h, n=9 fetuses, P<0.0001), the “average radiant efficiency in fetuses versus PBS” value is “significantly higher”.
